Eleven compounds from article PMC7125889 (Bioorganic & Medicinal Chemistry, 2008) can be followed below.

In one experiment the test system is NMDA receptors. Briefly: NMDA receptor antagonist functional assay, intracellular calcium. Type of experiment: cell-based. The conditions noted are these: for times more potent than amantadine as NMDA receptor antagonist: vs amantadine. On the technique in general: Calcium assays in cells follow changes in intracellular calcium, usually with a dye or a luminescent sensor.

The subject of experiment [1] is bloodstream form T. brucei (strain 427). In words: Trypanocidal activity against cultured bloodstream form T. brucei. The conditions noted are these: concentrations up to 5 μg mL−1.

Counter-ions that a name gives are not always drawn.

Regarding `NCC12CC3CC(CC1C3)C2` [Compound 14, [(Tricyclo[3.3.1.0^3,7]non-3-yl)methyl]amine hydrochloride], the “NMDA receptor antagonist activity (in words)” value in the experiment on NMDA receptors (cerebellar granule neurons, highest concentration tested) is recorded as “no NMDA receptor antagonist activity”. Take `CC12CC3CC1(C)CC3(N)C2` [Compound 21, 3,7-Dimethyl(tricyclo[3.3.0.0^3,7]oct-1-yl)amine·HCl]: the “times more potent as NMDA receptor antagonist than 3-noradamantylamine, 7” value in the experiment on NMDA receptors (vs compound 7) is given as 4 times. In addition, the “activity against cultured bloodstream form T. brucei” value in experiment [1] is reported as “no significant activity”. On to `CC12CC3CC1(C)CC3(NCc1ccccc1)C2` [Compound 22a, N-Benzyl-3,7-dimethyl(tricyclo[3.3.0.0^3,7]oct-1-yl)amine hydrochloride], for which the “activity against cultured bloodstream form T. brucei” value in experiment [1] is “no significant activity”. Same read-out and setting: then `CN(Cc1ccccc1)C12CC3(C)CC1CC3(C)C2` [Compound 23, N-Benzyl-N,3,7-trimethyl(tricyclo[3.3.0.0^3,7]oct-1-yl)amine hydrochloride], with “no significant activity”. In the case of `CC(N)C12CC3(C)CC1CC3(C)C2` (stereo not drawn) [Compound 25, 1-(3,7-Dimethyltricyclo[3.3.0.0^3,7]oct-1-yl)ethylamine hydrochloride], in the experiment with NMDA receptors (NMDA challenge), the “times more potent than amantadine as NMDA receptor antagonist” value is listed as 2.5 times.

On to `CC12CC3CC1(C)CC3(N(Cc1ccccc1)Cc1ccccc1)C2` [Compound 27, N,N-Dibenzyl-3,7-dimethyl(tricyclo[3.3.0.0^3,7]oct-1-yl)amine hydrochloride], for which, in experiment [1], the “activity against cultured bloodstream form T. brucei” value was “no significant activity”.

Consider `CNC12CC3(C)CC1CC3(C)C2` [Compound 28, N-3,7-Trimethyl(tricyclo[3.3.0.0^3,7]oct-1-yl)amine hydrochloride], for which, in experiment [1], the “activity against cultured bloodstream form T. brucei” value is listed as “no significant activity”.

As to `CN(Cc1ccccc1)CC12CC3(C)CC1CC3(C)C2` [Compound 32, N-Benzyl-N-methyl[(3,7-dimethyltricyclo[3.3.0.0^3,7]oct-1-yl)methyl]amine hydrochloride], the “activity against cultured bloodstream form T. brucei” value in experiment [1] is listed as “no significant activity”.

On to `CC12CC3CC1(C)CC3(CN1CCCCC1)C2` [Compound 34, N-[(3,7-Dimethyltricyclo[3.3.0.0^3,7]oct-1-yl)methyl]piperidine hydrochloride], for which the “activity against cultured bloodstream form T. brucei” value in experiment [1] is given as “no significant activity”. For `CC12CC3CC1(C)CC3(CNC(=N)N)C2` [Compound 35, N-[(3,7-dimethyltricyclo[3.3.0.0^3,7]oct-1-yl)methyl]guanidine hydrochloride], the “times more potent than amantadine as NMDA receptor antagonist” value with NMDA receptors (NMDA challenge) is listed as 10 times. Further, in the experiment with NMDA receptors (vs compound 18), the “times more potent than corresponding noradamantyl analog, 18” value is 3.5 times. In addition, in the experiment with NMDA receptors (vs memantine, NMDA challenge), the “times less potent than memantine as NMDA receptor antagonist” value came out at 5 times. The “activity against cultured bloodstream form T. brucei” value in experiment [1] is “without antiviral and trypanocidal activities”.

Take `CNCC12CC3(C)CC1CC3(C)C2` [Compound 36, N-Methyl[(3,7-dimethyltricyclo[3.3.0.0^3,7]oct-1-yl)methyl]amine hydrochloride]: in experiment [1], the “activity against cultured bloodstream form T. brucei” value is given as “no significant activity”.
